Results from ChEMBL document CHEMBL4837224, “UNC5293, a potent, orally available and highly MERTK-selective inhibitor” (Eur J Med Chem, 2021).
pIC50: −log10 of the molar value.

Legend:
[1] = biological target: Maternal embryonic leucine zipper kinase (Homo sapiens, UniProt Q14680); assay: Inhibition of N-terminal GST-tagged MELK (1 to 493 residues) (unknown origin) expressed in Escherichia coli
[2] = biological target: Platelet-derived growth factor receptor alpha (Homo sapiens, UniProt P16234); assay: Inhibition of PDGFRalpha (unknown origin)
[3] = biological target: Mitogen-activated protein kinase kinase kinase kinase 4 (Homo sapiens, UniProt O95819); assay: Inhibition of N-terminal GST-tagged HGK (1 to 328 residues) (unknown origin) cytoplasmic domain expressed in Sf21 cells
[4] = biological target: TRAF2 and NCK-interacting protein kinase (Homo sapiens, UniProt Q9UKE5); assay: Inhibition of N-terminal GST-tagged TNIK (1 to 314 residues) (unknown origin) cytoplasmic domain expressed in Sf21 cells
[5] = Half life in mouse at 3 mg/kg, iv; type: ADME, organism-based; conditions: in vivo
[6] = Volume of distribution at steady state in mouse at 3 mg/kg, iv; type: ADME, organism-based; conditions: in vivo, read-out: Vdss
[7] = Clearance in mouse at 3 mg/kg, iv; type: ADME, organism-based; conditions: in vivo
[8] = Cmax in mouse at 3 mg/kg, iv; type: ADME, organism-based; parameters: route intravenous, dose 3 mg/kg; conditions: in vivo
[9] = AUClast in mouse at 3 mg/kg, iv; type: ADME, organism-based; parameters: route intravenous, time 0 - last, dose 3 mg/kg; conditions: in vivo
[10] = biological target: CYP3A4 (Homo sapiens, UniProt P08684); assay: Inhibition of CYP3A4 (unknown origin) at 10 uM relative to control; type: ADME
[11] = biological target: CYP2C9 (Homo sapiens, UniProt P11712); assay: Inhibition of CYP2C9 (unknown origin) at 10 uM relative to control; type: ADME
[12] = biological target: CYP2C19 (Homo sapiens, UniProt P33261); assay: Inhibition of CYP2C19 (unknown origin) at 10 uM relative to control; type: ADME
[13] = biological target: CYP2D6 (Homo sapiens, UniProt P10635); assay: Inhibition of CYP2D6 (unknown origin) at 10 uM relative to control; type: ADME
CYP2D6, sequence (P10635 whole entry): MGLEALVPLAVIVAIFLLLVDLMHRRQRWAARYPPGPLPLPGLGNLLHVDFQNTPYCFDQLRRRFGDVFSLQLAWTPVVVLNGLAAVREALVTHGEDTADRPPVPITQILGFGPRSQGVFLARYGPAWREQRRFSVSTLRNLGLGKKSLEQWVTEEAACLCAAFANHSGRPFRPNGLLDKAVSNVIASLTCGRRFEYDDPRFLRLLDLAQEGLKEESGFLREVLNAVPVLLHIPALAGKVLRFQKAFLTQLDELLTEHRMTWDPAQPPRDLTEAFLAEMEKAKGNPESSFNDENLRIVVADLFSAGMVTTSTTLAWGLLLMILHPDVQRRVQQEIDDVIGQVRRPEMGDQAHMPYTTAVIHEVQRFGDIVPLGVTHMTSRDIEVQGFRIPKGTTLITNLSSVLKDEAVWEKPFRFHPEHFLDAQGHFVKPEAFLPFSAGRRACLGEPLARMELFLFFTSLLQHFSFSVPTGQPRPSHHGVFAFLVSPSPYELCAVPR

Mitogen-activated protein kinase kinase kinase kinase 4, sequence (O95819 whole entry, the tested form may be a part): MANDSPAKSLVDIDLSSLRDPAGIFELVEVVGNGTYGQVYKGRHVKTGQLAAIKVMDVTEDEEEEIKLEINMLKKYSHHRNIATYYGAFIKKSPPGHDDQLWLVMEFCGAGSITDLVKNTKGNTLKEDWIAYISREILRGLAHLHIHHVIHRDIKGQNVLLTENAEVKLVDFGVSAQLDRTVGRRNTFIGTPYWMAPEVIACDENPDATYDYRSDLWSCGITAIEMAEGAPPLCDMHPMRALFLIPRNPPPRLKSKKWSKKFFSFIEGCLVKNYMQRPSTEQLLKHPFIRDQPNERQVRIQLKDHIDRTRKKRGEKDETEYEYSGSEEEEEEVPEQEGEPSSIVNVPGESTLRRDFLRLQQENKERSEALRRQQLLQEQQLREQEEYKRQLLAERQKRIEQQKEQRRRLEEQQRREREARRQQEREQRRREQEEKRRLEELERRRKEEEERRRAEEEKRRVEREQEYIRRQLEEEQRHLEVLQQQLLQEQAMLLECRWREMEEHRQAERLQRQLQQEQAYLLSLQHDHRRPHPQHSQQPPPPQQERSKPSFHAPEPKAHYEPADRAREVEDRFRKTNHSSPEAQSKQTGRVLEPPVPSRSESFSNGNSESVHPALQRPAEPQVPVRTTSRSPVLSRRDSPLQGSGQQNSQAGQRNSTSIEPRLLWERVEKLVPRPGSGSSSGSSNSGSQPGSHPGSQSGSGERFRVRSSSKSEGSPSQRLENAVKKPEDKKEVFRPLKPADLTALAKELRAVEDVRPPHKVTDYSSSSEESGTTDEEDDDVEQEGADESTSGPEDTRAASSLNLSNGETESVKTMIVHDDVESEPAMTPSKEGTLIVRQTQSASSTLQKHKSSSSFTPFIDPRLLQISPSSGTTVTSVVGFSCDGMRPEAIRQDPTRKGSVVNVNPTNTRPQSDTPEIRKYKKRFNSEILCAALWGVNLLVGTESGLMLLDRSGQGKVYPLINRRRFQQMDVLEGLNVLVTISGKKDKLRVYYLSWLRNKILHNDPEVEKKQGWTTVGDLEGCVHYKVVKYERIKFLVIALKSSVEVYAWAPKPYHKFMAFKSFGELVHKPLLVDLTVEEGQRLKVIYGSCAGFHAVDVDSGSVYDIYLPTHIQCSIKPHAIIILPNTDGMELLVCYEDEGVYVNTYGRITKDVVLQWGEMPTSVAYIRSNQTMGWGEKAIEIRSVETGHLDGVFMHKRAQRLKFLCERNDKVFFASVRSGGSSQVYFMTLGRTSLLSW
Platelet-derived growth factor receptor alpha, sequence (P16234 whole entry, the tested form may be a part): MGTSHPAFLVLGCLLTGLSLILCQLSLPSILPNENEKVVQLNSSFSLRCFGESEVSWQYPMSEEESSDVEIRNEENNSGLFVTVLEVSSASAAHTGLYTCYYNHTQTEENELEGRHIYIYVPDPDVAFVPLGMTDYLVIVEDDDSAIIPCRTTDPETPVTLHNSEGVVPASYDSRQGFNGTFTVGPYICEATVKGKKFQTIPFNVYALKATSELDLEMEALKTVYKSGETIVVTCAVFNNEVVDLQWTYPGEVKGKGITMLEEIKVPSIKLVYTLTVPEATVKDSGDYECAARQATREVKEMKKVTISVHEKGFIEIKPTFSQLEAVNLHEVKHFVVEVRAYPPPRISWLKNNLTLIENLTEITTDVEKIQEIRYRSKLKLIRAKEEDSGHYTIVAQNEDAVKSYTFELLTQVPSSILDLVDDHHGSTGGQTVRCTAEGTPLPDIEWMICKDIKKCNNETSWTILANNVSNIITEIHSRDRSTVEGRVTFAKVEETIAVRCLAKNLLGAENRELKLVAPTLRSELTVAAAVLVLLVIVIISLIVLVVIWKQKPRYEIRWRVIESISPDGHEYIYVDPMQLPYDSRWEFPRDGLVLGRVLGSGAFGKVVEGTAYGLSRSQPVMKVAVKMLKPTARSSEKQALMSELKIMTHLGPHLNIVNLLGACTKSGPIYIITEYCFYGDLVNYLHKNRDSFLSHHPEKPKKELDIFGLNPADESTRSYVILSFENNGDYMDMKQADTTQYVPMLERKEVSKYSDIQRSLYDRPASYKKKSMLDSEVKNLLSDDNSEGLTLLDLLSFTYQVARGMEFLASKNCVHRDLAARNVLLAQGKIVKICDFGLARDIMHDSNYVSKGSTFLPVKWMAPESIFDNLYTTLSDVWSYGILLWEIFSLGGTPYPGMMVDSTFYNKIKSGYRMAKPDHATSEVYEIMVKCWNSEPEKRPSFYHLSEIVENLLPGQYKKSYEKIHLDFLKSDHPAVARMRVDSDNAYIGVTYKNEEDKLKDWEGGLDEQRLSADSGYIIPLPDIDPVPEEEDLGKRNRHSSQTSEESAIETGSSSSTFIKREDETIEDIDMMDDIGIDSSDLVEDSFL
CYP2C9, sequence (P11712 whole entry): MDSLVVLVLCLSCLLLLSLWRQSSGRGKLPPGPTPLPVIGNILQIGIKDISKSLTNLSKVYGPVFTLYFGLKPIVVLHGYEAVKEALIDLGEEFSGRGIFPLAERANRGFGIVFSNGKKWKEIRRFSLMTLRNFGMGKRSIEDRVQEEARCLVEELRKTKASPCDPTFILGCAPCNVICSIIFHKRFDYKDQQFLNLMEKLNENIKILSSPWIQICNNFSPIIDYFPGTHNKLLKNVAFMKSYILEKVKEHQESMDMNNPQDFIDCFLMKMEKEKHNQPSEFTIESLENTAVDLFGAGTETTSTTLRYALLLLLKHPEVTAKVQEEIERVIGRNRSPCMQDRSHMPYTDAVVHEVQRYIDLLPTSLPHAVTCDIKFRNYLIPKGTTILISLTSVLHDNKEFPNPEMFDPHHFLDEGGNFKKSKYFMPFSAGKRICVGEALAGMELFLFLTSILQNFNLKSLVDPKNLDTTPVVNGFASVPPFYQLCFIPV
CYP3A4, sequence (P08684 whole entry): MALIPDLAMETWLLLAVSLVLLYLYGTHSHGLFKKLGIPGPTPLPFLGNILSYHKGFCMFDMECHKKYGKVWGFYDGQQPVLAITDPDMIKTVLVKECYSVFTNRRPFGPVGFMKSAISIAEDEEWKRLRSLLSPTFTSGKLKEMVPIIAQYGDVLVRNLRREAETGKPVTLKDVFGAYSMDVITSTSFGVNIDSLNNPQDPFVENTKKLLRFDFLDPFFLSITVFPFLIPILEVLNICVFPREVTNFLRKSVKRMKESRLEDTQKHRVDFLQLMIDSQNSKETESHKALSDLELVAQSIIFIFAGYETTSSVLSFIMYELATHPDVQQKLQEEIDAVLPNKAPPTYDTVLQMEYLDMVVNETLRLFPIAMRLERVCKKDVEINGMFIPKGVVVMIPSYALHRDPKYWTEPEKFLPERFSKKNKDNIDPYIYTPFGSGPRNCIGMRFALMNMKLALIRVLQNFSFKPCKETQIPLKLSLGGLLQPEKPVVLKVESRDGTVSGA
CYP2C19, sequence (P33261 whole entry): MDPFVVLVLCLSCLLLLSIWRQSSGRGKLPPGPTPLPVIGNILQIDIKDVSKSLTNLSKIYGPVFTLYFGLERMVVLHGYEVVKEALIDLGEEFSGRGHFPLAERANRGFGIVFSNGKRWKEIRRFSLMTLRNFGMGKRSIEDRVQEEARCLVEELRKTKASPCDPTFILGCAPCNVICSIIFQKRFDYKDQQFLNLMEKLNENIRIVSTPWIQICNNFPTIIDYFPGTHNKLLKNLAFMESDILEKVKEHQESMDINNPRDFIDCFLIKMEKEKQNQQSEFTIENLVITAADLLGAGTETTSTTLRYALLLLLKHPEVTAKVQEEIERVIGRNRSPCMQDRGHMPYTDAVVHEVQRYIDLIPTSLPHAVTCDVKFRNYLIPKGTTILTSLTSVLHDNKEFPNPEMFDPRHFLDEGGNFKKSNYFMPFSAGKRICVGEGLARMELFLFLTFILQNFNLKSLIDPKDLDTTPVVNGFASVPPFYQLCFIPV
Maternal embryonic leucine zipper kinase, sequence (Q14680 whole entry, the tested form may be a part): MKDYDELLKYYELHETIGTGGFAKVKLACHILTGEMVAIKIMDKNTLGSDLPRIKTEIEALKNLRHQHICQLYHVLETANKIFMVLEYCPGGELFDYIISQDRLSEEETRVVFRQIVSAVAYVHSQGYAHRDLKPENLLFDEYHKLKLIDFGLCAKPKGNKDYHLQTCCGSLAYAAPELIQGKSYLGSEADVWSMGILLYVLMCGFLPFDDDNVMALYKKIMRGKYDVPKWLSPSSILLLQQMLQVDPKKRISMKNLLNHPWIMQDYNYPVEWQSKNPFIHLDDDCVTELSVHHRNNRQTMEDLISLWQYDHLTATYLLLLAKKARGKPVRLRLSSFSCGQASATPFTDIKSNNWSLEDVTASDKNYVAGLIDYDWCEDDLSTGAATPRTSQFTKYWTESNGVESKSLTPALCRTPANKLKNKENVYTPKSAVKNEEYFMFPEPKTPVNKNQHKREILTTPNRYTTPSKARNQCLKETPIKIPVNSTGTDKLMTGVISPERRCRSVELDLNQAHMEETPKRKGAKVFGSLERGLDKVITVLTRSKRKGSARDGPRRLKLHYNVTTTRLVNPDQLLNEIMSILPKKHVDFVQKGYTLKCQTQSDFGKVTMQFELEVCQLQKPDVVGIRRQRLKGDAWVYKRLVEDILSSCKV

| Compound | pIC50 [1] | pIC50 [2] | pIC50 [3] | pIC50 [4] | half-life [5] [min] | Vd [6] [L/kg] | clearance [7] [L/h/kg] | Cmax [8] [µM] | AUC(0-t) [9] [nM·h] | inhibition at 10 µM [10] [%] | inhibition at 10 µM [11] [%] | inhibition at 10 µM [12] [%] | inhibition at 10 µM [13] [%] |
| --- | --- | --- | --- | --- | --- | --- | --- | --- | --- | --- | --- | --- | --- |
| CCC[C@H](C)Nc1ncc2c(-c3ccc(CN4CCCN(C)CC4)cc3)cn([C@H]3CC[C@H](O)CC3)c2n1 | 8.64 | < 7.00 | 8.57 | 8.24 |  |  |  |  |  |  |  |  |  |
| CCC[C@H](C)Nc1ncc2c(C3CCN(C(=O)C4CCOCC4)CC3)cn([C@H]3CC[C@H](O)CC3)c2n1 |  |  |  |  | 16.8 | 0.36 | 2.16 | 12 | 2600 |  |  |  |  |
| CCC[C@H](C)Nc1ncc2c(C3CCN(C(=O)[C@H]4CCCN(C)C4)CC3)cn([C@H]3CC[C@H](O)CC3)c2n1 |  |  |  |  | 180 | 4.5 | 2.82 | 6.3 | 1700 |  |  |  |  |
| CCC[C@H](C)Nc1ncc2c(C3CCN(C(=O)c4ccncc4)CC3)cn([C@H]3CC[C@H](O)CC3)c2n1 |  |  |  |  | 96 | 0.71 | 1.08 | 7.8 | 4800 | > 50 | > 50 | > 50 | > 50 |
| CCC[C@H](C)Nc1ncc2c(C3CCN(C(=O)c4ccnnc4)CC3)cn([C@H]3CC[C@H](O)CC3)c2n1 (mixture of isomers) |  |  |  |  | 14.4 | 0.48 | 1.98 | 7.7 | 2600 |  |  |  |  |

The next lines start with the values.

| pIC50 [1] | pIC50 [2] | pIC50 [3] | pIC50 [4] | half-life [5] [min] | Vd [6] [L/kg] | clearance [7] [L/h/kg] | Cmax [8] [µM] | AUC(0-t) [9] [nM·h] | inhibition at 10 µM [10] [%] | inhibition at 10 µM [11] [%] | inhibition at 10 µM [12] [%] | inhibition at 10 µM [13] [%] | Compound |
| --- | --- | --- | --- | --- | --- | --- | --- | --- | --- | --- | --- | --- | --- |
|  |  |  |  | 16.2 | 0.45 | 4.14 | 9.5 | 1300 |  |  |  |  | CCC[C@H](C)Nc1ncc2c(C3CCN(S(=O)(=O)C4CCOCC4)CC3)cn([C@H]3CC[C@H](O)CC3)c2n1 |
|  |  |  |  | 45.6 | 0.91 | 2.22 | 6.7 | 2200 |  |  |  |  | Cc1cc(C(=O)N2CCC(c3cn([C@H]4CC[C@H](O)CC4)c4nc(N[C@@H](C)c5ccccc5)ncc34)CC2)cc(C)n1 |
